Read-outs that look alike come from different tables or passages of the source.

The experiment deals with hNav1.7 (Homo sapiens, UniProt Q15858). Nature of the experiment: cell-based. It counts as cell-based. The following applies: for IC50: read-out: PX hNav1.7 Tonic IC50.
Where [1] appears, read: ratio of PX tonic IC50 values, Table 11.
[2] abbreviates: Table 12, PatchXpress, tonic block.

hNav1.7, sequence (Q15858 whole entry): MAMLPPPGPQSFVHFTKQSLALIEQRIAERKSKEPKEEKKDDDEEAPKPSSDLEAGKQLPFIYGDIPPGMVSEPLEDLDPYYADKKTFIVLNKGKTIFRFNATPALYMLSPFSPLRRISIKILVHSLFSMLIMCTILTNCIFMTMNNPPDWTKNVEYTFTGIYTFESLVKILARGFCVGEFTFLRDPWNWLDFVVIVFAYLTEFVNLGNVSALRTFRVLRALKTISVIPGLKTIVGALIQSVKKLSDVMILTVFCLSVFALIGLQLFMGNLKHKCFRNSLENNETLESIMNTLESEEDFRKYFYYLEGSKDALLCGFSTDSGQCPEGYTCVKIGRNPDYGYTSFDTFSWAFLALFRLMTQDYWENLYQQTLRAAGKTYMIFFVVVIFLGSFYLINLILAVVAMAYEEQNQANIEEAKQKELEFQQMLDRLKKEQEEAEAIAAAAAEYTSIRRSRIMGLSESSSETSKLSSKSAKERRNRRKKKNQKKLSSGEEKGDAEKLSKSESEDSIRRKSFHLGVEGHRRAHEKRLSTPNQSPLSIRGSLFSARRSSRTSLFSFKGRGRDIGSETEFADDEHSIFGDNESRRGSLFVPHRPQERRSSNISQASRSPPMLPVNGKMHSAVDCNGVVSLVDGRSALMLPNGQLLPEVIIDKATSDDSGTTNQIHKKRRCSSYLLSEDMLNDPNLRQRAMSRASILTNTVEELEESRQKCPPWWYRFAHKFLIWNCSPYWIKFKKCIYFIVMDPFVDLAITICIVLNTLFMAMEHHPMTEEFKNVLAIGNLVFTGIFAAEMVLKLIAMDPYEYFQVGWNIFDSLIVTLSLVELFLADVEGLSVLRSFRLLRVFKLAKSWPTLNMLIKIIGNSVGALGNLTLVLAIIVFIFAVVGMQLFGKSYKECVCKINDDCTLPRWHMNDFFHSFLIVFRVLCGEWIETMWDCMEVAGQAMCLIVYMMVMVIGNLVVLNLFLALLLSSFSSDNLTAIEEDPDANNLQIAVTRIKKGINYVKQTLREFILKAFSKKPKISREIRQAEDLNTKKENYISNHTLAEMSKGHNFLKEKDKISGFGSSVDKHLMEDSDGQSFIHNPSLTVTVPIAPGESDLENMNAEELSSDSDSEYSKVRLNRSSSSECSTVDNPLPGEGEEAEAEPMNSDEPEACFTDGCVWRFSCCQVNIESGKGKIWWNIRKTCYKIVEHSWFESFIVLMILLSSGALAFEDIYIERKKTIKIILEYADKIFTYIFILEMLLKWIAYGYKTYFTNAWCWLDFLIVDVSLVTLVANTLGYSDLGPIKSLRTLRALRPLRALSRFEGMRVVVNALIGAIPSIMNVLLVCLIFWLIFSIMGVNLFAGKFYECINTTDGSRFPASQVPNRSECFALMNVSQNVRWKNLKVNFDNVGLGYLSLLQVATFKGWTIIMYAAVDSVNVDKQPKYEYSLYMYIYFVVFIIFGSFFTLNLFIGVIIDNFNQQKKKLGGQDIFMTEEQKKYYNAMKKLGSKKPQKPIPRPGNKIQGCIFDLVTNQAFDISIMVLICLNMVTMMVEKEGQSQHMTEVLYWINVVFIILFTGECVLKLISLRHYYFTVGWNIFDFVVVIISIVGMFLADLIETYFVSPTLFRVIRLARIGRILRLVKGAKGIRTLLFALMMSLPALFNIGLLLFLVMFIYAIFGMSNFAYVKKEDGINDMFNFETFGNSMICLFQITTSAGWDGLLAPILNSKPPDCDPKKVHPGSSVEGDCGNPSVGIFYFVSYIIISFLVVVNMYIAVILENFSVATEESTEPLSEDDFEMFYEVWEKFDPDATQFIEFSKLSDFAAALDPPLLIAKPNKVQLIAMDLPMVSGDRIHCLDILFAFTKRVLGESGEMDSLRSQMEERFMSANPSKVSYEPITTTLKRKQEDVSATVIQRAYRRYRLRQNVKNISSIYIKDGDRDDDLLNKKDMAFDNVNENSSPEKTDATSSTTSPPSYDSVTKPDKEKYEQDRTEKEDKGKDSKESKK

On to `CC[C@H](C)[C@H](NC(=O)[C@H](Cc1ccc(O)cc1)NC(=O)[C@H](CCCCN)NC(=O)[C@H](CCCNC(=N)N)NC(=O)[C@@H]1CSSC[C@@H]2NC(=O)[C@H](C)NC(=O)[C@H](CCCNC(=N)N)NC(=O)[C@H](CCCCN)NC(=O)[C@H](CO)NC(=O)[C@H](CC(=O)O)NC(=O)[C@@H]3CSSC[C@H](NC(=O)[C@H](CCC(=O)O)NC(=O)[C@H](CC(C)C)NC(=O)CNC(=O)[C@H](CCC(=O)O)NC(=O)[C@H](CSSC[C@H](NC(=O)[C@@H](N)Cc4ccc(O)cc4)C(=O)N[C@@H](CCC(N)=O)C(=O)N[C@@H](CCCCN)C(=O)N[C@@H](Cc4ccccc4)C(=O)N[C@@H](CCSC)C(=O)N[C@@H](Cc4c[nH]c5ccccc45)C(=O)N[C@@H]([C@@H](C)O)C(=O)N3)NC2=O)C(=O)N[C@@H](CCCCN)C(=O)N[C@@H](CC(C)C)C(=O)N[C@@H](Cc2c[nH]c3ccccc23)C(=O)N1)C(N)=O` [compound 193], for which, under setting [1], the Nav1.4/Nav1.7 worked out at 217 and the Nav1.5/Nav1.7 came to 217.
On to `CCCC[C@@H]1NC(=O)[C@H](Cc2c[nH]c3ccccc23)NC(=O)[C@H](CCCCN)NC(=O)[C@H](CCC(N)=O)NC(=O)[C@@H](NC(=O)[C@H](Cc2ccc(O)cc2)NC(=O)[C@@H](N)CC#N)CSSC[C@@H]2NC(=O)[C@@H]3CSSC[C@@H](C(=O)N[C@@H](CCCNC(=N)N)C(=O)N[C@@H](CCCCN)C(=O)N[C@@H](CCC(=O)O)C(=O)N[C@H](C(N)=O)[C@@H](C)CC)NC(=O)[C@H](Cc4c[nH]c5ccccc45)NC(=O)[C@H](CC(C)C)NC(=O)[C@H](CCCCN)NC(=O)[C@H](CSSC[C@H](NC(=O)[C@H]([C@@H](C)O)NC(=O)[C@H](Cc4c[nH]c5ccccc45)NC1=O)C(=O)N[C@@H](CC(=O)O)C(=O)N[C@@H](CO)C(=O)N[C@@H](CCCCN)C(=O)N[C@@H](CCCNC(=N)N)C(=O)N[C@@H](C)C(=O)N3)NC(=O)[C@H](CCCNC(=N)N)NC(=O)[C@H](CC(C)C)NC(=O)CNC(=O)[C@H](Cc1cn(CCCCCCCCCCCCCCC(=O)O)nn1)NC2=O` [compound 895], for which the IC50 came out at 260 nM.
As to `C#CC[C@H](N)C(=O)N[C@@H](Cc1ccc(O)cc1)C(=O)N[C@H]1CSSC[C@@H]2NC(=O)[C@@H]3CSSC[C@@H](C(=O)N[C@@H](CCCNC(=N)N)C(=O)N[C@@H](CCCCN)C(=O)N[C@@H](CCC(=O)O)C(=O)N[C@H](C(N)=O)[C@@H](C)CC)NC(=O)[C@H](Cc4ccc5ccccc5c4)NC(=O)[C@H](CC(C)C)NC(=O)[C@H](CCCCN)NC(=O)[C@H](CSSC[C@H](NC(=O)[C@H]([C@@H](C)O)NC(=O)[C@H](Cc4c[nH]c5ccccc45)NC(=O)[C@H](CCCC)NC(=O)[C@H](Cc4c[nH]c5ccccc45)NC(=O)[C@H](CCCCN)NC(=O)[C@H](CCC(N)=O)NC1=O)C(=O)N[C@@H](CC(=O)O)C(=O)N[C@@H](CO)C(=O)N[C@@H](CCCCN)C(=O)N[C@@H](CCCNC(=N)N)C(=O)N[C@@H](C)C(=O)N3)NC(=O)[C@H](CCCNC(=N)N)NC(=O)[C@H](CC(C)C)NC(=O)CNC(=O)[C@H](CCC(=O)O)NC2=O` [compound 852], the 50% inhibitory concentration (IC50) under setting [2] worked out at 182 nM.
On to `C#CC[C@H](N)C(=O)N[C@@H](Cc1ccc(O)cc1)C(=O)N[C@H]1CSSC[C@@H]2NC(=O)[C@@H]3CSSC[C@@H](C(=O)N[C@@H](CCCNC(=N)N)C(=O)N[C@@H](CCCCN)C(=O)N[C@@H](CCC(=O)O)C(=O)N[C@H](C(N)=O)[C@@H](C)CC)NC(=O)[C@H](Cc4c[nH]c5ccccc45)NC(=O)[C@H](CC(C)C)NC(=O)[C@H](CCCCN)NC(=O)[C@H](CSSC[C@H](NC(=O)[C@H]([C@@H](C)O)NC(=O)[C@H](Cc4c[nH]c5ccccc45)NC(=O)[C@H](CCCC)NC(=O)[C@H](Cc4c[nH]c5ccccc45)NC(=O)[C@H](CCCCN)NC(=O)[C@H](CCC(N)=O)NC1=O)C(=O)N[C@@H](CC(=O)O)C(=O)N[C@@H](CO)C(=O)N[C@@H](CCCCN)C(=O)N[C@@H](CCCNC(=N)N)C(=O)N[C@@H](C)C(=O)N3)NC(=O)[C@H](CCCNC(=N)N)NC(=O)[C@H](CCCNC(=N)N)NC(=O)CNC(=O)[C@H](CCC(=O)O)NC2=O` [compound 705], for which the IC50 under setting [2] is above 1000 nM.
In the case of `C#CC[C@H](N)C(=O)N[C@@H](Cc1ccc(O)cc1)C(=O)N[C@H]1CSSC[C@@H]2NC(=O)[C@@H]3CSSC[C@@H](C(=O)N[C@@H](CCCNC(=N)N)C(=O)N[C@@H](CCCCN)C(=O)N[C@@H](CCC(=O)O)C(=O)N[C@H](C(N)=O)[C@@H](C)CC)NC(=O)[C@H](Cc4c[nH]c5ccccc45)NC(=O)[C@H](CC(C)C)NC(=O)[C@H](CCCCN)NC(=O)[C@H](CSSC[C@H](NC(=O)[C@H]([C@@H](C)O)NC(=O)[C@H](Cc4c[nH]c5ccccc45)NC(=O)[C@H](CCCC)NC(=O)[C@H](Cc4c[nH]c5ccccc45)NC(=O)[C@H](CCCCN)NC(=O)[C@H](CCC(N)=O)NC1=O)C(=O)N[C@@H](CC(=O)O)C(=O)N[C@@H](CO)C(=O)N[C@@H](CCCCN)C(=O)N[C@@H](CCCNC(=N)N)C(=O)N[C@@H](C)C(=O)N3)NC(=O)[C@H](CCCNC(=N)N)NC(=O)[C@H](C)NC(=O)CNC(=O)[C@H](CCC(=O)O)NC2=O` [compound 703], the IC50 under setting [2] is above 1000 nM.
Regarding `CCCC[C@@H]1NC(=O)[C@H](Cc2c[nH]c3ccccc23)NC(=O)[C@H](CCCCN)NC(=O)[C@H](CCC(N)=O)NC(=O)[C@@H](NC(=O)[C@H](CCCCNC(=O)CCOCCOCCOCCOCCOCCOCCOCCOCCOCCOCCOCCOCCN)NC(=O)[C@@H](N)CC#N)CSSC[C@@H]2NC(=O)[C@@H]3CSSC[C@@H](C(=O)N[C@@H](CCCNC(=N)N)C(=O)N[C@@H](CCCCN)C(=O)N[C@@H](CCC(=O)O)C(=O)N[C@H](C(N)=O)[C@@H](C)CC)NC(=O)[C@H](Cc4c[nH]c5ccccc45)NC(=O)[C@H](CC(C)C)NC(=O)[C@H](CCCCN)NC(=O)[C@H](CSSC[C@H](NC(=O)[C@H]([C@@H](C)O)NC(=O)[C@H](Cc4c[nH]c5ccccc45)NC1=O)C(=O)N[C@@H](CC(=O)O)C(=O)N[C@@H](CO)C(=O)N[C@@H](CCCCN)C(=O)N[C@@H](CCCNC(=N)N)C(=O)N[C@@H](C)C(=O)N3)NC(=O)[C@H](CCCNC(=N)N)NC(=O)[C@H](CC(C)C)NC(=O)CNC(=O)[C@H](CCC(=O)O)NC2=O` [compound 563], the Nav1.4/Nav1.7 under setting [1] stood at 126.
For the compound `CCCC[C@@H]1NC(=O)[C@H](Cc2c[nH]c3ccccc23)NC(=O)[C@H](CCCCN)NC(=O)[C@H](CCC(N)=O)NC(=O)[C@@H](NC(=O)[C@H](Cc2ccc(O)cc2)NC(=O)[C@H](N)CC(C)C)CSSC[C@@H]2NC(=O)[C@@H]3CSSC[C@@H](C(=O)N[C@@H](CCCNC(=N)N)C(=O)N[C@@H](CCCCN)C(=O)N[C@@H](CCC(=O)O)C(=O)N[C@H](C(N)=O)[C@@H](C)CC)NC(=O)[C@H](Cc4c[nH]c5ccccc45)NC(=O)[C@H](CC(C)C)NC(=O)[C@H](CCCCN)NC(=O)[C@H](CSSC[C@H](NC(=O)[C@H]([C@@H](C)O)NC(=O)[C@H](Cc4c[nH]c5ccccc45)NC1=O)C(=O)N[C@@H](CC(=O)O)C(=O)N[C@@H](CO)C(=O)N[C@@H](CCCCN)C(=O)N[C@@H](CCCNC(=N)N)C(=O)N[C@@H](C)C(=O)N3)NC(=O)[C@H](CCCNC(=N)N)NC(=O)[C@H](CC(C)C)NC(=O)CNC(=O)[C@H](CCCCNC(=O)CCOCCOCCOCCOCCOCCOCCOCCOCCOCCOCCOCCOCCN)NC2=O` [compound 464], the Nav1.4/Nav1.7 under setting [1] amounted to 18.
As for `C#CC[C@H](N)C(=O)N[C@@H](Cc1ccc(O)cc1)C(=O)N[C@H]1CSSC[C@@H]2NC(=O)[C@@H]3CSSC[C@@H](C(=O)N[C@@H](CCCNC(=N)N)C(=O)N[C@@H](CCCCN)C(=O)N[C@@H](CCC(=O)O)C(=O)N[C@H](C(=O)N[C@@H](CCC(=O)O)C(N)=O)[C@@H](C)CC)NC(=O)[C@H](Cc4c[nH]c5ccccc45)NC(=O)[C@H](CC(C)C)NC(=O)[C@H](CCCCN)NC(=O)[C@H](CSSC[C@H](NC(=O)[C@H]([C@@H](C)O)NC(=O)[C@H](Cc4c[nH]c5ccccc45)NC(=O)[C@H](CCCC)NC(=O)[C@H](Cc4c[nH]c5ccccc45)NC(=O)[C@H](CCCCN)NC(=O)[C@H](CCC(N)=O)NC1=O)C(=O)N[C@@H](CC(=O)O)C(=O)N[C@@H](CO)C(=O)N[C@@H](CCCCN)C(=O)N[C@@H](CCCNC(=N)N)C(=O)N[C@@H](C)C(=O)N3)NC(=O)[C@H](CCCNC(=N)N)NC(=O)[C@H](CC(C)C)NC(=O)CNC(=O)[C@H](CCC(=O)O)NC2=O` [compound 726], under setting [2], the half-maximal inhibitory concentration (IC50) amounted to 32.4 nM.
Consider `C#CC[C@H](N)C(=O)N[C@@H](Cc1ccc(O)cc1)C(=O)N[C@H]1CSSC[C@@H]2NC(=O)[C@@H]3CSSC[C@@H](C(=O)N[C@@H](CCCNC(=N)N)C(=O)N[C@@H](CCCCN)C(=O)N[C@H](C(=O)N[C@H](C(N)=O)[C@@H](C)CC)[C@@H](C)CC)NC(=O)[C@H](Cc4c[nH]c5ccccc45)NC(=O)[C@H](CC(C)C)NC(=O)[C@H](CCCCN)NC(=O)[C@H](CSSC[C@H](NC(=O)[C@H]([C@@H](C)O)NC(=O)[C@H](Cc4c[nH]c5ccccc45)NC(=O)[C@H](CCCC)NC(=O)[C@H](Cc4c[nH]c5ccccc45)NC(=O)[C@H](CCCCN)NC(=O)[C@H](CCC(N)=O)NC1=O)C(=O)N[C@@H](CC(=O)O)C(=O)N[C@@H](CO)C(=O)N[C@@H](CCCCN)C(=O)N[C@@H](CCCNC(=N)N)C(=O)N[C@@H](C)C(=O)N3)NC(=O)[C@H](Cc1ccc(O)cc1)NC(=O)[C@H](CC(C)C)NC(=O)CNC(=O)[C@H](CCC(=O)O)NC2=O` [compound 682], for which, under setting [2], the IC50 stood at 5.98 nM.
On to `CCCC[C@@H]1NC(=O)[C@H](Cc2c[nH]c3ccccc23)NC(=O)[C@H](CCCCN)NC(=O)[C@H](CCC(N)=O)NC(=O)[C@@H](NC(=O)[C@H](Cc2ccc(O)cc2)NC(=O)[C@@H](N)CC#N)CSSC[C@@H]2NC(=O)[C@@H]3CSSC[C@@H](C(=O)N[C@@H](CCCNC(=N)N)C(=O)N[C@@H](CCCCN)C(=O)N[C@@H](CCC(=O)O)C(=O)N[C@H](C(N)=O)[C@@H](C)CC)NC(=O)[C@H](Cc4c[nH]c5ccccc45)NC(=O)[C@H](CC(C)C)NC(=O)[C@H](CCCCN)NC(=O)[C@H](CSSC[C@H](NC(=O)[C@H]([C@@H](C)O)NC(=O)[C@H](Cc4c[nH]c5ccccc45)NC1=O)C(=O)N[C@@H](CC(=O)O)C(=O)N[C@@H](CCCCNC(=O)CCOCCOCCOCCOCCOCCOCCOCCOCCOCCOCCOCCOCCN)C(=O)N[C@@H](CCCCN)C(=O)N[C@@H](CCCNC(=N)N)C(=O)N[C@@H](C)C(=O)N3)NC(=O)[C@H](CCCNC(=N)N)NC(=O)[C@H](CC(C)C)NC(=O)CNC(=O)[C@H](CCC(=O)O)NC2=O` [compound 565], for which the Nav1.4/Nav1.7 under setting [1] was found to be 75.

By IC50 is commonly meant the concentration at which inhibition is half-maximal.

The values are drawn from patent US10344060B2 (priority 2013, dated 2019).
